These results are taken from ChEMBL document CHEMBL1201862, “PubChem BioAssay data set” (2004).

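Results reflect a 48-hour exposure of cells in 96-well plates to compound at five concentrations. The concentration for 50% growth inhibition is given as GI50.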 The source made the active and inactive calls. Cut-off read from the data, not from the text of the source: active = GI50 up to about 1.1 µM and inactive = higher. Some results are limits rather than exact numbers.

What all share (assay): NCI tumour cell line growth inhibition, 48 h
In assay [1] the test system is NCI/ADR-RES.
Assay [2] deals with MOLT-4.
In assay [3] the test system is SK-MEL-2.
Assay [4] deals with LOX IMVI.
The test system of assay [5] is SNB-19.
The subject of assay [6] is ACHN.
Assay [7] relates to OVCAR-4.
Assay [8] relates to UO-31.
Assay [9] concerns SK-MEL-5.
Assay [10] relates to MDA-N.
For assay [11], the system named is M14.
Assay [12] concerns IGROV-1.
The test system of assay [13] is NCI-H226.
Assay [14] has as its system CCRF-CEM.
Assay [15] deals with OVCAR-3.
The test system of assay [16] is RXF 393.
The subject of assay [17] is HCT-116.
In assay [18] the test system is A498.
The subject of assay [19] is HT-29.
Assay [20] deals with HCC 2998.

Regarding `CN(C)CC(CN(C)C)c1ccccn1`, the GI50 in assay [1], in [2], in [3], in assay [4], in assay [5] and in [6] was > 100 µM (inactive) in each case. Moreover, the GI50 in assay [7], in assay [8], in assay [9], in [10], in assay [11] and in assay [12] was > 100 µM (inactive) throughout. Further, the GI50 in assay [13], in assay [14], in [15], in assay [16], in [17] and in assay [18] was > 100 µM (inactive) each time. For the same molecule, in assay [19], the GI50 was > 100 µM (inactive).
Regarding `C/C=C\C(CC(=O)NCCC1CN(S(=O)(=O)C(F)(F)F)c2ccccc21)CC(=O)OC` (stereo not drawn), the GI50 in assay [1] is 29.6 µM (inactive); in assay [2], 29.6 µM (inactive); in [3], 32.1 µM (inactive); in [5], 44.7 µM (inactive); in assay [6], 37.6 µM (inactive); in assay [7], 63.5 µM (inactive). For the same molecule, the GI50 in assay [20] is 53.3 µM (inactive); in [8], 35.3 µM (inactive); in assay [9] it was 16.9 µM (inactive); in assay [10], 40 µM (inactive); in assay [11], 36.5 µM (inactive); in [12], 50 µM (inactive). Also, the GI50 is 26.6 µM (inactive) in assay [14]; 38.3 µM (inactive) in assay [15]; 36.3 µM (inactive) in [16]; 31.3 µM (inactive) in assay [17]; 62.8 µM (inactive) in assay [18]; 21.8 µM (inactive) in assay [19].
Consider `COC(=O)C1Cc2c([nH]c3ccccc23)-c2[nH]c3ccccc3c2CC(NC(C)=O)C(=O)NCC(=O)NCC(=O)N1` (stereo not drawn), for which the GI50 in [1], in [2], in assay [3], in assay [4], in assay [5] and in assay [6] was > 100 µM (inactive) in each case. The GI50 in assay [8], in [9], in [10], in assay [11], in assay [12] and in assay [13] was > 100 µM (inactive) throughout. The GI50 in [14], in assay [15], in [16], in assay [17], in assay [18] and in assay [19] was > 100 µM (inactive) throughout.
Regarding `C/C(=N\NC(=O)c1ccccc1O)c1cccc(/C(C)=N/NC(=O)c2ccccc2O)n1`, the GI50 is 27.6 µM (inactive) in assay [1]; 0.955 µM (active) in [2]; 10.2 µM (inactive) in assay [3]; 1.7 µM (inactive) in [4]; 4.27 µM (inactive) in [6]; 1.02 µM (active) in assay [20]. In addition, the GI50 in [9] is 6.97 µM (inactive); in assay [10] it was > 57 µM (inactive); in assay [11], 12.6 µM (inactive); in assay [16] it was 8.55 µM (inactive); in [18] it was 37.8 µM (inactive); in assay [19] it was 8.61 µM (inactive).
Take `Cc1ccc(-n2cc(-c3ccc(Cl)cc3)c3c(N/N=C4\SCC(=O)N4C)ncnc32)cc1`: the GI50 was 6.65 µM (inactive) in assay [1]; 38.9 µM (inactive) in [2]; 2.48 µM (inactive) in [3]; 5.64 µM (inactive) in [4]; 9.59 µM (inactive) in assay [5]; 7.36 µM (inactive) in assay [6]. Also, the GI50 was 2.48 µM (inactive) in assay [7]; 46.3 µM (inactive) in assay [8]; 3.81 µM (inactive) in assay [9]; 5.19 µM (inactive) in assay [10]; 4.78 µM (inactive) in assay [11]; 14.8 µM (inactive) in assay [12]. Further, the GI50 in [13] is 7.35 µM (inactive); in assay [14], > 100 µM (inactive); in assay [15], 10.8 µM (inactive); in assay [16] it was 7.18 µM (inactive); in assay [17] it was 4.59 µM (inactive); in [18], 11.5 µM (inactive). Further, the GI50 in assay [19] was 12.3 µM (inactive).
Turning to `COCC1OC(S(=O)(=O)c2ccccc2)C(O)C(OC)C1OC` (stereo not drawn), the GI50 in assay [1], in [2], in [3], in [4], in assay [5] and in assay [6] was > 100 µM (inactive) throughout. Besides, the GI50 in assay [7], in assay [20], in assay [8], in assay [9], in assay [10] and in [11] was > 100 µM (inactive) throughout. The GI50 in assay [12], in [13], in assay [14], in assay [15], in [16] and in [17] was > 100 µM (inactive) each time. For the same molecule, the GI50 in assay [19] was > 100 µM (inactive).
With `Cc1n[nH]c(=S)n1/N=C/c1ccc(-c2ccc(Cl)cc2)o1`, the GI50 is > 100 µM (inactive) in [1]; > 100 µM (inactive) in assay [2]; 29.8 µM (inactive) in [3]; > 100 µM (inactive) in assay [4]; 63.7 µM (inactive) in [6]; > 100 µM (inactive) in assay [7]. The GI50 in assay [8], in [9], in assay [10], in assay [11], in [12] and in [13] was > 100 µM (inactive) each time. For the same molecule, the GI50 was > 100 µM (inactive) in [15]; 43 µM (inactive) in assay [16]; > 100 µM (inactive) in assay [17]; > 100 µM (inactive) in assay [18]; > 100 µM (inactive) in [19].
In the case of `OCCOc1ccccc2cccc1-2`, the GI50 in assay [1] was > 100 µM (inactive); in assay [3] it was > 100 µM (inactive); in assay [4] it was > 100 µM (inactive); in assay [5], > 100 µM (inactive); in assay [6], > 100 µM (inactive); in [7], 34 µM (inactive). Besides, the GI50 in assay [20], in [8], in assay [9], in assay [10], in assay [11] and in assay [12] was > 100 µM (inactive) each time. The GI50 in assay [13], in [14], in [15], in assay [17], in [18] and in assay [19] was > 100 µM (inactive) throughout.
Turning to `O=C1CSC(c2cccc(Oc3ccccc3)c2)N1c1ccc(Cl)cc1` (stereo not drawn), the GI50 in [1] was 24.4 µM (inactive); in assay [2] it was 13.6 µM (inactive); in [3], 18.5 µM (inactive); in assay [4], 18 µM (inactive); in assay [5], 54.8 µM (inactive); in assay [6] it was 26.1 µM (inactive). In addition, the GI50 in assay [7] was 26.2 µM (inactive); in [8], 34.5 µM (inactive); in [9], 11.9 µM (inactive); in assay [10], 19.4 µM (inactive); in assay [11], 15 µM (inactive); in assay [13] it was 32.8 µM (inactive). For the same molecule, the GI50 in [14] was 51.4 µM (inactive); in assay [15], 39.4 µM (inactive); in [16], 20.4 µM (inactive); in assay [17], 13.6 µM (inactive); in assay [18], 17.5 µM (inactive); in assay [19], 37.8 µM (inactive).
Consider `CCOC(=O)c1cc(C2CCN(Cc3ccccc3)C2=O)c(C(=O)/C=C(/C)N)[nH]1` (stereo not drawn), for which the GI50 in assay [1] was 72.1 µM (inactive); in assay [2], > 100 µM (inactive); in assay [3] it was > 100 µM (inactive); in assay [5] it was > 100 µM (inactive); in assay [6], > 100 µM (inactive); in assay [7], 72.9 µM (inactive). For the same molecule, the GI50 in [20] was > 100 µM (inactive); in assay [8], 91.2 µM (inactive); in [9], > 100 µM (inactive); in [10], > 100 µM (inactive); in [11], > 100 µM (inactive); in [12], 67.5 µM (inactive). Further, the GI50 was 81.3 µM (inactive) in [15]; > 100 µM (inactive) in [16]; 90.6 µM (inactive) in assay [17]; > 100 µM (inactive) in assay [18]; > 100 µM (inactive) in [19].
For `CCOC(=O)/C=C1\c2ccccc2C(=O)N1CC(=O)OCC`, the GI50 is 50 µM (inactive) in assay [1]; > 100 µM (inactive) in [2]; > 100 µM (inactive) in [3]; 75.5 µM (inactive) in assay [4]; > 100 µM (inactive) in assay [5]; > 100 µM (inactive) in assay [6]. For the same molecule, the GI50 in assay [7], in assay [8], in assay [9], in assay [10], in assay [11] and in assay [12] was > 100 µM (inactive) in each case. Besides, the GI50 in assay [13], in assay [14], in assay [15], in [16], in assay [17] and in assay [18] was > 100 µM (inactive) in each case.
